Patent US20190204402A1, “METHOD FOR POST-PROCESSING MRI IMAGES TO OBTAIN HEPATIC PERFUSION AND TRANSPORT PARAMETERS” (INSERM (INSTITUT NATIONAL DE LA SANTE DE LA RECHERCHE …, priority 2016, published 2019)
Several values for one entry are separate records, joined by “and”; a condition that tells them apart may be missing. Equal entries are not always repeated.

System: liver of patients with chronic liver diseases
Assay: Dynamic gadoxetate-enhanced MR imaging with dual-input three-compartment pharmacokinetic model, patients with chronic liver diseases
Type: in vivo, human
Description: The feasibility of the method was evaluated in a prospective study with liver biopsy as a gold standard on patients with liver chronic liver diseases. The institutional ethics committee approved the protocol and informed consent was obtained from each subject. Twenty-one consecutive patients (4 women, 17 men; mean age, 51.0±10.2 years) who were suspected of having chronic liver disease on clinical and biological data underwent in the same period liver biopsy and MR imaging. Mean delay between MR imaging and liver biopsy was 2.5 days (range: 0-20 days). All subjects were fasting during six hours before MR imaging. Exclusion criteria were the usual contra-indications for MR imaging.
Percutaneous liver biopsy was performed with a 1.4-mm-diameter needle (Hepafix; Braun, Melsungen, Germany). In 6 patients with ascites and/or trouble of blood crasis, liver biopsy was performed through a transjugular approach using a catheter needle with a diameter of 1.1 mm (Cook Bloomington, Ind., USA). The liver samples were fixed in buffered formalin and embedded in paraffin. Sections, 4 μm thick, were stained with hematoxylin-eosin and Masson trichrome and assessed by a pathologist blinded to the clinical data and to the results of MR imaging. The stage of fibrosis from F0 to F4 was evaluated semiquantitatively on Masson trichrome-stained slides according to the METAVIR staging system. For further analysis of fibrosis severity, a three-level staging of fibrosis was used (F0-F1: minimal fibrosis, F2-F3: intermediate fibrosis, and F4: cirrhosis). Moreover, patients with F≥2 were considered having significant fibrosis.
MR imaging was performed on a Siemens Skyra 3.0 T system (Siemens Medical Solutions, Erlangen, Germany). […] The signal was collected with the 32-channel phased array body and the spine coils.
Gadoxetate (Primovist, Bayer, Berlin, Germany) was injected intravenously using an automatic injector (Medrad Spectris Solaris, Warrendale, PA) with an injection rate of 1 mL·s^-1 and flushed with physiologic saline (same volume and injection rate). The gadoxetate dose was 0.025 mmol·kg^-1.
Dynamic liver imaging was started simultaneously with the intravenous injection of gadoxetate and was performed in free breathing.
To do this, pauses were added between dynamics as follow: for the 280 first dynamics: no pause, the effective temporal resolution was 2.1 s; for the next 150 dynamics: 5 s pause, the effective temporal resolution was 7.1 s, for the 60 last dynamics; 8 s pause, the effective temporal resolution was 10.1 s. Dynamic acquisition duration was close to 38 minutes.
To simultaneously quantify hepatic micro-perfusion and function transport parameters, a model was developed. In the liver, the quantity of gadoxetate Q between τ and τ+dτ can be expressed as the difference between incoming Qin and outgoing gadoxetate quantities Qout. This means that:
To express R(t) with kinetic indices kij, the liver is modeled with a model according to which the liver is a dual input three compartments. The three compartments are the extracellular compartment, the hepatocyte compartment and the intrahepatic bile ducts. The extracellular compartment comprises the intravascular compartment and the Disse space's.
From the motion corrected dynamic frames, arterial and portal input were recorded with freehand regions of interest (ROI) drawn in the abdominal aorta and the portal vein respectively. Tissue response was measured from a ROI placed in the right hepatic lobe anterior segment (segments V-VIII) and the right lobe posterior segment (segments VI-VII), two large ROIs covering an extended region without visible large vessels were drawn on three central slices. For inputs function and tissue response, signal intensity was converted into relative gadoxetate concentration as follows:
To convert blood concentration into plasma concentration, the input functions were normalized by one minus hematocrit. A hematocrit of 45% was assumed in this study. […]

[1] = intermediate fibrosis (F2-F3), n = 8
[2] = minimal fibrosis (F0-F1), n = 9

CCOc1ccc(C[C@@H](CN(CCN(CC(=O)[O-])CC(=O)[O-])CC(=O)[O-])N(CC(=O)[O-])CC(=O)[O-])cc1.[Gd+3].[H+].[H+] [gadoxetate]
Biliary efflux (cirrhosis (F4), n = 4): 0.31±0.57 mL · min^−1 · 100 g^−1
E (hepatocyte uptake fraction) (cirrhosis (F4), n = 4): 3.4±2.5%
MTT (extracellular mean transit time) (cirrhosis (F4), n = 4): 30.1 ± 12.5 s and 29.7 ± 9.7 s
Sinusoidal backflux (cirrhosis (F4), n = 4): 0.0012±0.002 mL · min^−1 · 100 g^−1
Ve (extracellular volume) (cirrhosis (F4), n = 4): 30.1 ± 12.5%
Biliary efflux [1]: 1.5±0.5 mL · min^−1 · 100 g^−1
E (hepatocyte uptake fraction) [1]: 8.7±3.1%
MTT (extracellular mean transit time) [1]: 14.1 ± 3.9 s
Sinusoidal backflux [1]: 0.021 ± 0.013 mL · min^−1 · 100 g^−1
Ve (extracellular volume) [1]: 21.8 ± 6.5%
Biliary efflux [2]: 3.2±1.0 mL · min^−1 · 100 g^−1
E (hepatocyte uptake fraction) [2]: 12.0±3.8%
MTT (extracellular mean transit time) [2]: 15.0 ± 5.0 s
Sinusoidal backflux [2]: 0.035±0.012 mL · min^−1 · 100 g^−1
Ve (extracellular volume) [2]: 20.8 ± 6.2%
k3 (biliary efflux), parametric map (single F0 patient, FIG. 13): 3.53 mL·min^-1·100 g^-1
k3 (biliary efflux), parametric map (single F1 patient, FIG. 14): 3.67 mL·min^-1·100 g^-1
k3 (biliary efflux), parametric map (single F2 patient, FIG. 15): 2.23 mL·min^-1·100 g^-1
k3 (biliary efflux), parametric map (single F3 patient, FIG. 16): 1.64 mL·min^-1·100 g^-1
